Experimental data reported in patent US11559598B2, “Alcohol free, low viscosity, and high water content air freshener compositions” (Belle-Aire Fragrances, LLC, priority 2020, dated 2023).
Values after ≈ are worked out from the molar mass of the structure shown.

Tests used:
[1] = Appearance of air freshener compositions with 20% BAC1342; format: physicochemical; settings: 20% BAC1342 in distilled water, without any other surfactants
Protocol: (§1) Two of the compositions used traditional used surfactants (polysorbate 20 and octylphenol oxylate), and the third used a glycol ether (diethylene glycol mono butyl ether). The appearances of the compositions were recorded and their viscosities were measured using a Brookfield Rotational Viscometer with Spindle #1 and Rotational Speed at 12 RPM:
Both of the prior art surfactants fail to form transparent microemulsion with 20% BAC1342 in distilled water.

[2] = Viscosity by Brookfield Rotational Viscometer; format: physicochemical; settings: 20% BAC1342 in distilled water
Protocol: as §1, with “RPM: […]” for “RPM:”

[3] = at 25° C.; cited from earlier work

SMILES	formation of transparent microemulsion [1]	viscosity (in words) [2]	water solubility [3] [µg/mL]
CCCCOCCOCCO [diethylene glycol n-butyl ether]	forms clear microemulsion	low enough to be applied in various formats such as room sprays and plug-ins	–
C=C1CC/C=C(\C)CC[C@@H]2[C@@H]1CC2(C)C [Beta-caryophyllene]	–	–	0.05 (≈ 0.245 µM)
CC(CC=O)c1ccc(C(C)(C)C)cc1 (stereo not shown) [3-(4-tert-butylphenyl)butanal]	–	–	38 (≈ 186 µM)
